A short description of the data set: Oxidative status / stability (PV, AV, Totox; CDR FoodLab Junior analyzer), storage with closed lids at room temperature. It is filed as physicochemical. The conditions noted are these: for TOTOX: Totox=2*PV+AV. As for the experimental part: The final product in powder form is isolated by evaporating said first and second organic solvents and water from the reaction mixture to recover said basic amino acid salts of PUFAs. Preferably, said evaporation step is carried under reduced pressure between about 0° C.-70° C. depending on the properties of the equipment used. The oxidative status of the obtained final product described herein is quantified by peroxide value (PV), anisidine value (AV) and Totox value. PV is a measure of the level of the primary oxidation products (lipid hydroperoxides) in the product, which is specified in milliequivalents O2 per kg of sample, while the AV is an unspecific measure of saturated and unsaturated carbonyl compounds. Totox is calculated by the equation Totox=2*PV+AV.
The comparison of oxidative status of amino acid salts of omega-3, starting material in ester form and fish oil in free acid form are assessed by measuring the PV and AV, then all the samples are subjected to the same oxidizing condition over a certain period of time, followed by the measuring PV and AV of the samples. The oxidizing conditions are selected from one of them as below: 1) Storage in closed containers at atmospheric condition for 7 months; or 2) Storage in loose closed containers exposed to air at 40° C. for 1 month.
Food Lab Analyzer: Among several techniques known in the art for determining the oxidative levels of a sample. The CDR FoodLab® Junior analyzer is used herein for determining PV and AV. The procedures are as described below:
The solid product 0.5 g was dissolved in 2 ml of MeOH and HCl solution with the ratio of 1:10 (v/v). The mixture was stirred for 5 minutes, followed by the addition of 5 ml of water. The mixture was extracted with 3 ml of hexane containing 100 ppm butylhydroxytoluene (BHT). The organic layer was dried over MgSO4, filtrated and evaporated under reduced pressure at the temperature of 0-70° C. to get the fish oil in free acid form, which is evaluated with the CDR FoodLab® Junior analyzer to get anisidine and peroxide values using the CDR FoodLab® Junior analyzer.
The molar ratio of EPA, NaOH and glycine was 1:1:1. The mixture was stirred at atmospheric condition (i.e. atmospheric pressure and room temperature) for 5 minutes to obtain a suspension solution. 100 mL of acetonitrile was added to further precipitate the glycine salt. […] About 8 g of EPA-gly was stored in a 20 ml of clear vial with a diameter of 27 mm, which was placed with closed lids on the bench at room temperature for the stability examination for 60 days.

[1] abbreviates: Table 1, time 60 d, closed lids, room temperature.
Where [2] appears, read: salt as generated, after roughing pump for 1 day.

Where the note is “Table 1, time 1 d”, `CC/C=C\C/C=C\C/C=C\C/C=C\C/C=C\C/C=C\CCC(=O)O.NCC(=O)O` [DHA-gly, glycine salt of docosahexaenoic acid] came in with an AV of over 100 A/g and a PV of 9.71 meq O2/Kg. For the same compound, under setting [1], the AV worked out at 7.4 A/g, the PV was 1.92 meq O2/Kg and the TOTOX is 11.24. Also, the PV under setting [2] was determined as 9.71 meqO2/kg.
With `CC/C=C\C/C=C\C/C=C\C/C=C\C/C=C\CCCC(=O)O.NCC(=O)O` [EPA-gly, glycine salt of eicosapentaenoic acid], the AV is 14.6 A/g (Table 1, time 1 d); under 0.5 A/g under setting [1]; 14.6 A/g under setting [2]. For the same compound, the PV is, setting by setting: (Table 1, time 1 d) 29.9 meq O2/Kg; under setting [1], 1.19 meq O2/Kg; under setting [2], 29.9 meqO2/kg. Also, the TOTOX is, setting by setting: (Table 1, time 1 d) 74.4; under setting [1], 2.38.

For the origin of these results see patent US20230065371A1, “PROCESS FOR MANUFACTURING SOLID NEUTRAL AMINO ACID SALTS OF POLYUNSATURATED FATTY ACIDS” (SILICYCLE INC., priority 2020, published 2023).
